pEC50: −log10 of the molar value. A value given as a limit tells only on which side of the number the result lay.

Data set [1] relates to recombinant NL4-3 virus (nef section replaced with Renilla luciferase gene) in MT-2 cells. Kind of data set: HIV cell culture assay (antiviral activity, luciferase readout). Format: cell-based. As to conditions: Renilla, NL43, MT-2 cells infected for 4-5 days with recombinant NL4-3 Renilla luciferase virus, serial dilutions of compound. A digest of the protocol:
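EC50 was derived by median-effect curve fitting of luciferase activity. The signal comes from MT-2 cells infected for 4–5 days with 293T-produced NL4-3 reporter virus, nef partly replaced by Renilla luciferase, in the presence of serially diluted compound.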

Data set [2] is described as follows: Compound cytotoxicity, XTT-based colorimetric assay. As to conditions: human, uninfected MT2 cells, day 4, XTT. Format: cell-based. A digest of the protocol: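 Run under the antiviral-assay protocol but without virus. Viability was read on day 4 and CC50 values were derived from the readout.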
For orientation: Tetrazolium dyes change colour on reduction, which living cells bring about.

One may read the pEC50 as −log10 of the EC50, conventionally taken in molar units. As usually defined, the CC50 is the concentration at which the toxic effect on the cells reaches its halfway point. Lower therefore signals harm at low concentration. On to `Cn1nc(NS(C)(=O)=O)c2c(Cl)ccc(-n3c(C(Cc4cc(F)cc(F)c4)NC(=O)Cn4nc(C(F)F)c5c4C(F)(F)[C@@H]4C[C@H]54)nc4cc(-c5ccccc5F)ccc4c3=O)c21` (single isomer, unassigned) [Example 1], for which the negative-log EC50 (pEC50) in data set [1] was 6.68. In data set [2], this compound displayed a CC50 at 4 day greater than 1000 nM.
Turning to `Cn1nc(NS(C)(=O)=O)c2c(Cl)ccc(-n3c([C@H](Cc4cc(F)cc(F)c4)NC(=O)Cn4nc(C(F)F)c5c4C(F)(F)[C@@H]4C[C@H]54)nc4cc(-c5ccc6c(c5)CCCO6)ccc4c3=O)c21` (atropisomer, axis not shown; (aR)) [Example 28, N-((S)-1-(3-(4-chloro-1-methyl-3-(methylsulfonamido)-1H-indazol-7-yl)-7-(chroman-6-yl)-4-oxo-3,4-dihydroquinazolin-2-yl)-2-(3,5-difluorophenyl)ethyl)-2-((3bS,4aR)-3-(difluoromethyl)-5,5-difluoro-3b,4,4a,5-tetrahydro-1H-cyclopropa[3,4]cyclopenta[1,2-c]pyrazol-1-yl)acetamide], in data set [1], the negative-log EC50 (pEC50) is 8.49. This compound came in with a 50% cytotoxic concentration (CC50) at 4 day in data set [2] greater than 1000 nM.
On the same counts, the results for `Cc1cc(Cl)ccc1-c1ccc2c(=O)n(-c3ccc(S(=O)(=O)N4CCOCC4)cc3)c([C@H](Cc3cc(F)cc(F)c3)NC(=O)Cn3ccc(C4CC4)n3)nc2c1` [Example 50, (S)-N-(1-(7-(4-chloro-2-methylphenyl)-3-(4-(morpholinosulfonyl)phenyl)-4-oxo-3,4-dihydroquinazolin-2-yl)-2-(3,5-difluorophenyl)ethyl)-2-(3-cyclopropyl-1H-pyrazol-1-yl)acetamide] are 7.15 and greater than 1000 nM.
The corresponding values for `Cc1cccc(-c2ccc3c(=O)n(-c4ccc(Cl)c5c(NS(C)(=O)=O)nn(CC(F)(F)F)c45)c([C@H](Cc4cc(F)cc(F)c4)NC(=O)Cn4nc(C(F)F)c5c4C(F)(F)[C@@H]4C[C@H]54)nc3c2)n1` [Example 161, N-((S)-1-(3-(4-chloro-3-(methylsulfonamido)-1-(2,2,2-trifluoroethyl)-1H-indazol-7-yl)-7-(6-methylpyridin-2-yl)-4-oxo-3,4-dihydroquinazolin-2-yl)-2-(3,5-difluorophenyl)ethyl)-2-((3bS,4aR)-3-(difluoromethyl)-5,5-difluoro-3b,4,4a,5-tetrahydro-1H-cyclopropa[3,4]cyclopenta[1,2-c]pyrazol-1-yl)acetamide] are 9.92 and greater than 500 nM.
As for `COc1cccc(OC)c1-c1ccc2c(=O)n(-c3ccc(S(=O)(=O)N4CCOCC4)cc3)c([C@H](Cc3cc(F)cc(F)c3)NC(=O)Cn3nc(C(F)F)c4c3C(F)(F)[C@@H]3C[C@H]43)nc2c1` [Example 83, 2-((3bS,4aR)-3-(difluoromethyl)-5,5-difluoro-3b,4,4a,5-tetrahydro-1H-cyclopropa[3,4]cyclopenta[1,2-c]pyrazol-1-yl)-N-((S)-2-(3,5-difluorophenyl)-1-(7-(2,6-dimethoxyphenyl)-3-(4-(morpholinosulfonyl)phenyl)-4-oxo-3,4-dihydroquinazolin-2-yl)ethyl)acetamide], the negative-log EC50 (pEC50) in data set [1] is 8.30. In data set [2], the half-maximal cytotoxic concentration (CC50) at 4 day is greater than 1000 nM.
On the same counts, the results for `Cn1nc(NS(C)(=O)=O)c2c(Cl)ccc(-n3c([C@H](Cc4cc(F)cc(F)c4)NC(=O)Cn4nc(C(F)F)c5c4C(F)(F)[C@@H]4C[C@H]54)nc4cc(-c5ccc6c7c(ccnc57)CCO6)ccc4c3=O)c21` (atropisomer, axis not shown; (aR)) [Example 82, N-((S)-1-(3-(4-chloro-1-methyl-3-(methylsulfonamido)-1H-indazol-7-yl)-7-(2,3-dihydropyrano[4,3,2-de]quinolin-7-yl)-4-oxo-3,4-dihydroquinazolin-2-yl)-2-(3,5-difluorophenyl)ethyl)-2-((3bS,4aR)-3-(difluoromethyl)-5,5-difluoro-3b,4,4a,5-tetrahydro-1H-cyclopropa[3,4]cyclopenta[1,2-c]pyrazol-1-yl)acetamide] are 8.15 and greater than 1000 nM.
Regarding `Cn1nc(NS(C)(=O)=O)c2c(Cl)ccc(-n3c([C@H](Cc4cc(F)cc(F)c4)NC(=O)Cn4nc(C(F)F)c5c4C(F)(F)[C@@H]4C[C@H]54)nc4cc(-c5ccccc5CO)ccc4c3=O)c21` (atropisomer, axis not shown; (aR)) [Example 116, N-((S)-1-(3-(4-chloro-1-methyl-3-(methylsulfonamido)-1H-indazol-7-yl)-7-(2-(hydroxymethyl)phenyl)-4-oxo-3,4-dihydroquinazolin-2-yl)-2-(3,5-difluorophenyl)ethyl)-2-((3bS,4aR)-3-(difluoromethyl)-5,5-difluoro-3b,4,4a,5-tetrahydro-1H-cyclopropa[3,4]cyclopenta[1,2-c]pyrazol-1-yl)acetamide], the pEC50 in data set [1] was 9.85. Moreover, the CC50 at 4 day in data set [2] is greater than 500 nM.
The corresponding values for `O=C(Cn1ccc(C2CC2)n1)N[C@@H](Cc1cc(F)cc(F)c1)c1nc2cc(-c3ccc(Cl)cc3Cl)ccc2c(=O)n1-c1ccc(S(=O)(=O)N2CCOCC2)cc1` [Example 81, (S)-2-(3-cyclopropyl-1H-pyrazol-1-yl)-N-(1-(7-(2,4-dichlorophenyl)-3-(4-(morpholinosulfonyl)phenyl)-4-oxo-3,4-dihydroquinazolin-2-yl)-2-(3,5-difluorophenyl)ethyl)acetamide] are 7.25 and greater than 1000 nM.
On to `Cc1c(-c2ccc3c(=O)n(-c4ccc(Cl)c5c(NS(C)(=O)=O)nn(C)c45)c([C@H](Cc4cc(F)cc(F)c4)NC(=O)Cn4nc(C(F)F)c5c4C(F)(F)[C@@H]4CC54)nc3c2)cc(F)c2c1CCCO2` (stereo in doubt) [Example 53, N-((S)-1-(3-(4-chloro-1-methyl-3-(methylsulfonamido)-1H-indazol-7-yl)-7-(8-fluoro-5-methylchroman-6-yl)-4-oxo-3,4-dihydroquinazolin-2-yl)-2-(3,5-difluorophenyl)ethyl)-2-((3bS,4aR)-3-(difluoromethyl)-5,5-difluoro-3b,4,4a,5-tetrahydro-1H-cyclopropa[3,4]cyclopenta[1,2-c]pyrazol-1-yl)acetamide], for which the pEC50 in data set [1] is 8.68. The same compound yielded a 50% cytotoxic concentration (CC50) at 4 day in data set [2] greater than 1000 nM.
On the same counts, the results for `CS(=O)(=O)Nc1nn(CC(F)(F)F)c2c(-n3c([C@H](Cc4cc(F)cc(F)c4)NC(=O)Cn4nc(C(F)F)c5c4C(F)(F)[C@@H]4C[C@H]54)nc4cc(-c5ccccc5S(C)(=O)=O)ccc4c3=O)ccc(Cl)c12` [Example 167, N-((S)-1-(3-(4-chloro-3-(methylsulfonamido)-1-(2,2,2-trifluoroethyl)-1H-indazol-7-yl)-7-(2-(methylsulfonyl)phenyl)-4-oxo-3,4-dihydroquinazolin-2-yl)-2-(3,5-difluorophenyl)ethyl)-2-((3bS,4aR)-3-(difluoromethyl)-5,5-difluoro-3b,4,4a,5-tetrahydro-1H-cyclopropa[3,4]cyclopenta[1,2-c]pyrazol-1-yl)acetamide] are 10.10 and greater than 500 nM.
Consider `Cn1nc(NS(C)(=O)=O)c2c(Cl)ccc(-n3c([C@H](Cc4cc(F)cc(F)c4)NC(=O)Cn4nc(C(F)F)cc4C(F)F)nc4cc(-c5ccccc5F)ccc4c3=O)c21` [Example 154, (S)-2-(3,5-bis(difluoromethyl)-1H-pyrazol-1-yl)-N-(1-(3-(4-chloro-1-methyl-3-(methylsulfonamido)-1H-indazol-7-yl)-7-(2-fluorophenyl)-4-oxo-3,4-dihydroquinazolin-2-yl)-2-(3,5-difluorophenyl)ethyl)acetamide], for which, in data set [1], the pEC50 is 8.32. Further, the cytotoxic concentration (CC50) at 4 day in data set [2] is greater than 1000 nM.
On the same counts, the results for `Cc1ccnc(-c2ccc3c(=O)n(-c4ccc(Cl)c5c(NS(C)(=O)=O)nn(CC(F)(F)F)c45)c([C@H](Cc4cc(F)cc(F)c4)NC(=O)Cn4nc(C(F)F)c5c4C(F)(F)[C@@H]4C[C@H]54)nc3c2)n1` [Example 162, N-((S)-1-(3-(4-chloro-3-(methylsulfonamido)-1-(2,2,2-trifluoroethyl)-1H-indazol-7-yl)-7-(4-methylpyrimidin-2-yl)-4-oxo-3,4-dihydroquinazolin-2-yl)-2-(3,5-difluorophenyl)ethyl)-2-((3bS,4aR)-3-(difluoromethyl)-5,5-difluoro-3b,4,4a,5-tetrahydro-1H-cyclopropa[3,4]cyclopenta[1,2-c]pyrazol-1-yl)acetamide] are 10.23 and greater than 500 nM.
Consider `CNC(=O)c1ccc(-c2ccc3c(=O)n(-c4ccc(Cl)c5c(NS(C)(=O)=O)nn(C)c45)c([C@H](Cc4cc(F)cc(F)c4)NC(=O)Cn4nc(C(F)F)c5c4C(F)(F)[C@@H]4C[C@H]54)nc3c2)cc1` (atropisomer, axis not shown; (aR)) [Example 62, 4-(3-(4-chloro-1-methyl-3-(methylsulfonamido)-1H-indazol-7-yl)-2-((S)-1-(2-((3bS,4aR)-3-(difluoromethyl)-5,5-difluoro-3b,4,4a,5-tetrahydro-1H-cyclopropa[3,4]cyclopenta[1,2-c]pyrazol-1-yl)acetamido)-2-(3,5-difluorophenyl)ethyl)-4-oxo-3,4-dihydroquinazolin-7-yl)-N-methylbenzamide], for which the pEC50 in data set [1] is 9.32. The compound also showed a half-maximal cytotoxic concentration (CC50) at 4 day in data set [2] greater than 1000 nM.
Consider `Cn1nc(NS(C)(=O)=O)c2c(Cl)ccc(-n3c([C@H](Cc4cc(F)cc(F)c4)NC(=O)Cn4nc(C(F)F)c5c4C(F)(F)[C@@H]4C[C@H]54)nc4cc(-c5cccc(C(=O)O)c5)ccc4c3=O)c21` (atropisomer, axis not shown; (aR)) [Example 17, 3-(3-(4-chloro-1-methyl-3-(methylsulfonamido)-1H-indazol-7-yl)-2-((S)-1-(2-((3bS,4aR)-3-(difluoromethyl)-5,5-difluoro-3b,4,4a,5-tetrahydro-1H-cyclopropa[3,4]cyclopenta[1,2-c]pyrazol-1-yl)acetamido)-2-(3,5-difluorophenyl)ethyl)-4-oxo-3,4-dihydroquinazolin-7-yl)benzoic acid], for which the pEC50 in data set [1] is 8.01. In data set [2], this compound showed a 50% cytotoxic concentration (CC50) at 4 day greater than 1000 nM.

Source of the values: patent publication US11505543B2, “4-oxo-3,4-dihydroquinazoline compounds as inhibitors of human immunodeficiency virus replication” (VIIV HEALTHCARE UK (NO.5) LIMITED, priority 2018, dated 2022).
